From ChEMBL document CHEMBL1201862, “PubChem BioAssay data set” (2004)
Values belong to the compound of their own block, whether it stands above or below them. Active and inactive are the calls of the source.

Assays:
[1] = HEK293 Cytotoxicity Assay Measured in Cell-Based System Using Plate Reader - 7071-01_Inhibitor_Dose_CherryPick_Activity_Set2.; format: functional
HEK293 = assay: viability loss in HEK293T cells – cell-based, ATP luminescence, cherry-pick samples, cytotoxicity control, dose response (AID 687005); format: functional; conditions: Homo sapiens;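 note: cells exposed to compound for 48 hours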
HeLa = assay: viability loss in HeLa cells – cell-based, ATP luminescence, cherry-pick samples, cytotoxicity control, dose response (AID 687004); format: functional; conditions: Homo sapiens
Protein Wnt-3a = Protein Wnt-3a (Mus musculus, UniProt P27467); assay: SAR analysis of small molecule antagonists of Gli-SUFU in a Wnt3a luminescent reporter assay.; format: functional
[2] = human cervical cancer cell viability loss – 24 h, plate reader, dry powder, cytotoxicity control, dose response (AID 686928); format: functional, cell-based; conditions: HeLa
[3] = OVCAR8 cell viability loss – plate reader, dry powder samples, PAX8 project, dose response (AID 743197); format: functional, cell-based; conditions: OVCAR-8
[4] = A2780 cell killing – plate reader, dry powder samples, cytotoxicity control, dose response (AID 743046); format: functional, cell-based
[5] = Late stage assay provider results from the probe development effort to identify selective inhibitors of heat shock protein 90 (HSP90): Absorbance-based cell proliferation assay in MCF7 cells.; format: functional
[6] = Late stage assay provider results from the probe development effort to identify selective inhibitors of heat shock protein 90 (HSP90): Absorbance-based cell proliferation assay in SKBR3 cells.; format: functional; conditions: SK-BR-3
[7] = biological target: Potassium channel subfamily K member 3 (Homo sapiens, UniProt O14649); assay: inhibition of human KCNK3 channel flux – CHO cells, FluxOR thallium flux, SAR follow-up (AID 652212); format: functional
[8] = biological target: Potassium channel subfamily K member 9 (Homo sapiens, UniProt Q9NPC2); assay: KCNK9 flux blockade, concentration-response – cell-based, FluxOR thallium flux, selectivity assay for TASK1 inhibitor project, SAR follow-up (AID 652211); format: functional;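 note: potency is for inhibitors of the channel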
[9] = T. cruzi growth inhibition in host cells, dose response, cell-based, plate reader, dry powder, set 2 (AID 652275); format: functional
[10] = biological target: T1, Disintegrin and metalloproteinase domain-containing protein 17 (Homo sapiens, UniProt P78536); assay: exosite inhibitors of ADAM17, dose response, biochemical (AID 743260)
[11] = biological target: T1, Disintegrin and metalloproteinase domain-containing protein 17; assay: inhibition of ADAM17 substrate cleavage – biochemical, quenched FRET substrate, counter-screen for ADAM10 exosite inhibitor project, dose response (AID 743253)
[12] = biological target: T2, Kappa-type opioid receptor (Homo sapiens, UniProt P41145); format: functional
[13] = biological target: T2, Kappa-type opioid receptor; format: functional; remark: listed apart in the source
[14] = potency of ADAM10 substrate cleavage blockers – biochemical, QFRET, dose response (AID 743254);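 note: ADAM10 enzyme with the DM2 quenched FRET peptide as substrate; EDANS fluorescence gain as the protease cuts the substrate; inhibitor potency against ADAM10 proteolytic activity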
Beta-galactosidase = Beta-galactosidase (Escherichia coli, UniProt Q8VNN2); format: functional
Beta-galactosidase, sequence (Q8VNN2 whole entry): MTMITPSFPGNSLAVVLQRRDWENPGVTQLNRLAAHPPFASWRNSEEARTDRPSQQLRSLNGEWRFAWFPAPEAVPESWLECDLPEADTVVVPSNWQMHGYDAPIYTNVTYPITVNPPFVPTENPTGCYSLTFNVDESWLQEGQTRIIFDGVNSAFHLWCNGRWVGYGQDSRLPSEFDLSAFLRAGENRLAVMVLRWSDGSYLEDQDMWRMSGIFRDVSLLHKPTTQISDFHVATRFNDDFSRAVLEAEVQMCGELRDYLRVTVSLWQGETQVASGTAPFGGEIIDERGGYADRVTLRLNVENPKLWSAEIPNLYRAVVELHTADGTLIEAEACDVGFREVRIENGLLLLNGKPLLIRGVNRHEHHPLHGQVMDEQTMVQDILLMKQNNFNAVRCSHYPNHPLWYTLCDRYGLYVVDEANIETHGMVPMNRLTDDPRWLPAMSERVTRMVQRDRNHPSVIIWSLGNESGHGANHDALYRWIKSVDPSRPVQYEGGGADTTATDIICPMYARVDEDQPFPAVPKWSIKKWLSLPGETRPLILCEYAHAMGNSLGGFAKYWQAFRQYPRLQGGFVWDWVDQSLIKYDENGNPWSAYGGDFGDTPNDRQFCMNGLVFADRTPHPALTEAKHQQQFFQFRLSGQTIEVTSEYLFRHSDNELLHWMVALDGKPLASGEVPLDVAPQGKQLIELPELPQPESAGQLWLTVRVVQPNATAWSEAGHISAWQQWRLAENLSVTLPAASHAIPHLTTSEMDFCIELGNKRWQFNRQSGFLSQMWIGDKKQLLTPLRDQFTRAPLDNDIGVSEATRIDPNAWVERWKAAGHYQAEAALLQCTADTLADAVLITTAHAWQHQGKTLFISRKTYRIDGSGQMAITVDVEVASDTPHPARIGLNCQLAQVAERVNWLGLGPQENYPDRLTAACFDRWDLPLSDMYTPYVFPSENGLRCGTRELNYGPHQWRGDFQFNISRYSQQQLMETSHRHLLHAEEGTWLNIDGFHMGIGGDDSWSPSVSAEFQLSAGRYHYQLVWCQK

T1 sequence (P78536 whole entry, the tested form may be a part): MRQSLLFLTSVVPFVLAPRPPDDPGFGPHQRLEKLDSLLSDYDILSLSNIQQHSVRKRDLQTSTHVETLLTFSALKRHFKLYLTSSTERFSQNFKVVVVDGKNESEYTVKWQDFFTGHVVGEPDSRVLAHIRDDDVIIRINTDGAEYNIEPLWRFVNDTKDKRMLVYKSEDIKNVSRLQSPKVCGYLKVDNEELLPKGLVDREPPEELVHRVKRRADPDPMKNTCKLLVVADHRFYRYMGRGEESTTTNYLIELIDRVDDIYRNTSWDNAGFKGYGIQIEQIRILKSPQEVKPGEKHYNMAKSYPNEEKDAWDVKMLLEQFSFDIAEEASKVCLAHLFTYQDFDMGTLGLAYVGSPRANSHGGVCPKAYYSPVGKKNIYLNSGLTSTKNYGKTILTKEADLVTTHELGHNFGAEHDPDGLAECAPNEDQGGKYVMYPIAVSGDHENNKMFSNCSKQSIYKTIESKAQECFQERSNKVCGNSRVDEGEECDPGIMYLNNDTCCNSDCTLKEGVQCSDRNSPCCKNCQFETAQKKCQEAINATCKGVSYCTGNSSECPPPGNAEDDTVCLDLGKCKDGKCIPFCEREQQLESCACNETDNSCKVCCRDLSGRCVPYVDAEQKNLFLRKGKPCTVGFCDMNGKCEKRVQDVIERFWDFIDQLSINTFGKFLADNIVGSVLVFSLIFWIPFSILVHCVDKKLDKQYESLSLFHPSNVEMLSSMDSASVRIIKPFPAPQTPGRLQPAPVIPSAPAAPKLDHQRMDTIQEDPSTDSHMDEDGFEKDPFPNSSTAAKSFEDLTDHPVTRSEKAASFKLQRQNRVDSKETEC
T2 sequence (P41145 whole entry): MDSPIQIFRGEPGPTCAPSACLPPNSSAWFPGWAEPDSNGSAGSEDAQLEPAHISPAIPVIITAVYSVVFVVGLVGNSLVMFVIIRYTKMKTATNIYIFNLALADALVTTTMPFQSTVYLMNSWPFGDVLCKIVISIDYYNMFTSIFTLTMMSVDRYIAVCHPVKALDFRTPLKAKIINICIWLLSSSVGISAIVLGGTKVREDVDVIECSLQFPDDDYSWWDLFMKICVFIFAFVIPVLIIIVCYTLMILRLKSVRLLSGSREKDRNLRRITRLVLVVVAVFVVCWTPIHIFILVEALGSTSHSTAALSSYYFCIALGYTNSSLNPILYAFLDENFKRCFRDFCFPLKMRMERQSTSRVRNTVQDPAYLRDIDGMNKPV
Protein Wnt-3a, sequence (P27467 whole entry): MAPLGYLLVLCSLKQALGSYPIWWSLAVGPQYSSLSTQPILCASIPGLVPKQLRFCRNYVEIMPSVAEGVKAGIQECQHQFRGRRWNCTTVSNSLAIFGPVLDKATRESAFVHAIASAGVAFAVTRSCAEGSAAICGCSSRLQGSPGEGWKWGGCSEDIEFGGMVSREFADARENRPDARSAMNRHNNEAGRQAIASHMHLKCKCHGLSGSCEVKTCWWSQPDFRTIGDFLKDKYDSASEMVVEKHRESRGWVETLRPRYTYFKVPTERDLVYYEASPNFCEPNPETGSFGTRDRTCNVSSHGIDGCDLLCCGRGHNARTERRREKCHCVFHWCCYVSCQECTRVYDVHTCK
Potassium channel subfamily K member 9, sequence (Q9NPC2 whole entry): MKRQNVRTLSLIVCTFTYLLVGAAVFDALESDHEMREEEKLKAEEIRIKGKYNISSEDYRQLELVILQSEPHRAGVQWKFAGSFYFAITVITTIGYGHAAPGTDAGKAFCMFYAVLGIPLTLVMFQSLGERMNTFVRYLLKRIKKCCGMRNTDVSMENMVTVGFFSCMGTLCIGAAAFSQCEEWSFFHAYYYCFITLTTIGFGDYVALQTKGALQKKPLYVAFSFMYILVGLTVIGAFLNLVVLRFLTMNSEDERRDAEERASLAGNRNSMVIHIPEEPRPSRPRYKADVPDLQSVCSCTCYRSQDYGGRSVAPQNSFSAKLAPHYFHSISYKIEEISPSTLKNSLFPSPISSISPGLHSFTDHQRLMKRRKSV
Potassium channel subfamily K member 3, sequence (O14649 whole entry): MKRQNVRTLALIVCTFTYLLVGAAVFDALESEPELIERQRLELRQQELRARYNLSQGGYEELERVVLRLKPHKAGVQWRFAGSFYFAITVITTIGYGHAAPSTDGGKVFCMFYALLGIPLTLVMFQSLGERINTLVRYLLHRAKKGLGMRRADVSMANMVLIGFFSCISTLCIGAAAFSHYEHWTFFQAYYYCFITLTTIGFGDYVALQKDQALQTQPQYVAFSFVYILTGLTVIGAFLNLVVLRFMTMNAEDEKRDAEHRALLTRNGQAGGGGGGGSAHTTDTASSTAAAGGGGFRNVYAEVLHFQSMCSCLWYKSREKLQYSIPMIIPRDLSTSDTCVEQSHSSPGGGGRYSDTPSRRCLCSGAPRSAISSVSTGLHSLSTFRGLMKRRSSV

Compound: C[C@H]1CN([C@@H](C)CO)S(=O)(=O)c2ccc(Br)cc2O[C@H]1CN(C)S(=O)(=O)c1ccccc1F
AC50 [1]: 37.9 µM (active)
AC50 (HEK293): 37.9 µM (active)

Compound: COC(=O)C1=C(C)N(Cc2ccc(F)cc2)C(=S)NC1c1ccc(Cl)cc1 (stereo not drawn)
AC50 (HeLa): > 52 µM (inactive)

IC50 (Protein Wnt-3a): > 21.8 µM (inactive)
Compound: O=C(Nc1cc(N2CCCCC2)ncn1)c1cc2ccccc2s1

Compound: Cc1cc2nc3c(cc2cc1F)c(NC(=O)c1ccco1)nn3C
AC50 [2]: > 200 µM (inactive)

Compound: C[C@H]1CN([C@@H](C)CO)C(=O)c2cccc(NC(=O)Nc3ccc(C(F)(F)F)cc3)c2O[C@H]1CN(C)C(=O)NC1CCCCC1
AC50 [3]: > 70 µM (inactive)
AC50 [4]: 11.9 µM (active)

Compound: COc1ccc(CCN/C=C2/C=C(Br)C(=O)OC2=O)cc1
IC50 [5]: 1.8 µM (active)
IC50 [6]: 5.7 µM (active)

IC50 [7]: 0.114 µM (active)
IC50 [8]: 0.8 µM (active)
Compound: CCOc1ccccc1NC(=O)c1cccc(NC(=O)c2ccccc2OC(F)(F)F)c1

Compound: CC(C)N1C[C@@H](CN(C)CCc2ccc(Cl)cc2)Oc2c(NC(=O)c3ccncc3)cccc2C1=O
AC50 [9]: 0.000332 µM (active)

IC50 [10]: > 69.5 µM (inactive)
IC50 [11]: > 69.5 µM (inactive)
IC50 [12]: 3.86 µM
IC50 [13]: 9.65 µM (active)
IC50 [14]: > 69.5 µM (inactive)
EC50 (Beta-galactosidase): > 31.5 µM (inactive)
Compound: COCC/N=c1\scc(-c2cc(OC)ccc2OC)n1/N=C/c1c[nH]c2ccccc12
